Measurements as given in the supplement of paper PMC10307832.

What was measured:
Assay in all cases: relative viability (nuclei count vs DMSO), 5 days (fraction); higher = more cells survive
[1] = compound: C=CCn1c(=O)c2cnc(Nc3ccc(N4CCN(C)CC4)cc3)nc2n1-c1cccc(C(C)(C)O)n1 [Adavosertib] + O=C(CCCCCCC(=O)Nc1ccccc1)NO [Vorinostat] (partner 1 µM)
Outline: (§1)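 The day after seeding in 1536-well plates, lung cancer cell lines were treated by pin tool with a single drug, or with a fixed anchor-drug dose together with five library-drug doses (not always all listed) in √10 steps. After 5 days, a combined fix-and-stain solution (final 0.05% Triton X-100, 1% formaldehyde, 1 ug/ml Hoechst) was added. Nuclei counted on 4× images gave relative viability as treated counts over vehicle counts, reported as the median of duplicate plates.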

[2] = compound: C=CCn1c(=O)c2cnc(Nc3ccc(N4CCN(C)CC4)cc3)nc2n1-c1cccc(C(C)(C)O)n1 [Adavosertib] + N=C(N)NC(=N)NCCc1ccccc1 [Phenformin] (partner 250 µM)
Outline: as §1

[3] = compound: COc1nc(N)nc2c1ncn2[C@@H]1O[C@H](CO)[C@@H](O)[C@@H]1O [Nelarabine] + CC1(C)CCC(c2ccc(Cl)cc2)=C(CN2CCN(c3ccc(C(=O)NS(=O)(=O)c4ccc(N[C@H](CCN5CCOCC5)CSc5ccccc5)c(S(=O)(=O)C(F)(F)F)c4)cc3)CC2)C1 [Navitoclax] (partner 0.5 µM)
Outline: as §1

[4] = compound: C=CCn1c(=O)c2cnc(Nc3ccc(N4CCN(C)CC4)cc3)nc2n1-c1cccc(C(C)(C)O)n1 [Adavosertib] + COc1cccc2cc(-c3nc([C@H]4CC[C@H](C(=O)O)CC4)n4ncnc(N)c34)[nH]c12 [OSI-027] (partner 0.5 µM)
Outline: as §1

Question: How did the relative viability ([1]; first compound 0.03162 µM) turn out when EMC-BAC-2 was run?
Answer: 0.536

Question: What about the relative viability ([1]; first compound 0.1 µM) of the same cell line?
Answer: 0.431

Question: And the relative viability ([1]; first compound 0.3162 µM)?
Answer: 0.396

Question: And the relative viability ([2]; first compound 0.01 µM)?
Answer: 0.547

Question: What about the relative viability ([2]; first compound 0.03162 µM) of the same cell line?
Answer: 0.557

Question: And the relative viability ([2]; first compound 0.1 µM)?
Answer: 0.519

Question: And the relative viability ([2]; first compound 0.3162 µM)?
Answer: 0.479

Question: What about the relative viability ([3]; first compound 0.01 µM) of the same cell line?
Answer: 1.45

Question: And the relative viability ([3]; first compound 0.03162 µM)?
Answer: 1.11

Question: What about the relative viability ([3]; first compound 0.1 µM) of the same cell line?
Answer: 1.25

Question: What about the relative viability ([3]; first compound 0.3162 µM) of the same cell line?
Answer: 1.38

Question: What about the relative viability ([3]; first compound 1 µM) of the same cell line?
Answer: 1.16

Question: And the relative viability ([4]; first compound 0.01 µM)?
Answer: 0.375

Question: And the relative viability ([4]; first compound 0.03162 µM)?
Answer: 0.412

Question: And the relative viability ([4]; first compound 0.1 µM)?
Answer: 0.396

Question: What about the relative viability ([4]; first compound 0.3162 µM) of the same cell line?
Answer: 0.307
